Laboratory results from US20240012012A1, “BIOMARKER AND TREATMENT FOR VASCULAR COGNITIVE IMPAIRMENT AND RELATED CONDITIONS” (priority 2020, published 2024).

Tests used:
[1] = test system: neurofilament light protein (NFL); experiment: Serum NFL levels in patients undergoing coronary artery bypass grafting (CABG); format: in vivo, human; settings: 200 μg/kg/day s.c. for 21 days, vs saline vehicle
Description: It is well documented that patients undergoing coronary artery bypass grafting (CABG) tend to experience post-surgical cognitive dysfunction. The present study elucidates the response in serum NFL levels to CABG and how that response may be modulated by Ang-(1-7) treatment. Potential CABG participants underwent a screening visit between 2 and 15 days prior to CABG surgery, including a full medical history and physical examination to rule out dementia (Mini-Mental State Exam score less than 25), and depression (Geriatric Depression Scale score greater than 10). Between 1 and 15 days prior to CABG surgery, participants underwent neuropsychological evaluation including memory testing and blood draws for clinical pathology assessment, NFL biomarker assessment. […] At 21 days post-surgery, additional blood samples were obtained, and serum NFL levels were measured.
The serum NFL concentration was measure in six subjects prior to CABG surgery and in 18 age-matched control subjects. […] Two subjects were administered saline vehicle control. […] Following surgery, serum NFL levels increased about four-fold in the patients treated with saline vehicle compared to pre-surgery level (p=0.0002).

[2] = test system: neurofilament light protein (NFL); experiment: Serum NFL quantification (Simoa NF-Light), murine heart failure model (Example 1); format: in vivo, mouse; settings: 50 μg/kg/day and 500 μg/kg/day, relative to HF-saline
Method: Male C57Bl/6J adult mice (Harlan, 8-10 weeks old) were randomly assigned to either the sham control (n=12) or heart failure (HF) group (n=44). All mice prior to surgery were weighed and anesthetized. For the HF mice, myocardial infarction (MI) was induced by ligation of the left coronary artery (LCA). Under anesthesia (2.5% isoflurane in a mixture of air and 02) a thoracotomy was performed at the fourth left intercostal space and the LCA permanently ligated to induce a myocardial infarction (MI). Occlusion of the LCA was confirmed by observing blanching, a slight change in color of the anterior wall of the left ventricle downstream of the ligature. Sham mice underwent the same procedure with the exception of ligating the LCA.
Following 5 weeks post MI surgery, mice were treated for […] with daily subcutaneous injections as follows:
NFL Quantification: Immediately following the final NOR test, mice were sacrificed and serum samples were obtained for NFL quantification using the Simoa™ NF-Light® kit (Quanterix Cat #103186, Lot #501953), which quantifies neurofilament light (NFL). Assay samples were diluted 1:4 and calibrators were undiluted. As samples and calibrators were run in duplicate and analyzed using the HD-X Analyzer software package.

brain cytokines = experiment: Whole brain lysate cytokines, MILLIPLEX MAP Mouse High Sensitivity Multiplex Immunoassay; format: in vivo
Method: Mice were assigned randomly to the following treatment groups: Control-Saline (sham MI surgery, treated with saline), HF-treated (HF-PNA5, or HF-Ang-(1-7) with either 50 μg/kg/day, or 500 μg/kg/day), or HF-saline. Mice recovered for 5 weeks following MI before receiving 24 days of daily subcutaneous drug treatment. Within the last 3 days of injections, animals underwent Novel Object Recognition (NOR) testing (FIG. 6). Animal treatment groups were as listed: heart failure (HF)-saline treated n=15, (HF-Saline), Sham surgery-saline treated n=15 (Control-Saline), HF-Ang-(1-7) at 500 μg/kilogram body weight/day for 24 days (HF-A500) n=15, HF-Ang-(1-7) at 50 μg/kg body weight/day for 24 days (HF-A50) n=15, HF-PNA5 at 500 μg/kilogram body weight/day (HF-P500) n=15, HF-PNA5 at 50 μg/kilogram body weight/day (HF-P50) n=15. Following MI, up to 7 mice died within a group resulting in varying number of mice per group that were available to undergo treatment, NOR testing, and provide serum samples.
Mice were anesthetized with isoflurane and rapidly decapitated. Brains were separated from the skull and quickly cut into two hemispheres. The halves of the brain were then rapidly frozen in corning tubes in liquid nitrogen and stored at −80° C. One half of each brain was lysed using 1 mL RIPA buffer (1% Triton X-100, 0.1% SDS, 1×PBS) with protease (protease inhibitor cocktail 100× [Sigma P8340]) and phosphatase inhibitors (phosphatase inhibitor cocktail 100× [Sigma P5726]). Tissue was then sonicated using an ultrasonic cell disruptor at 30% 40% amplitude for 1 min. Samples were returned to ice in between sonication to prevent the tissue from warming. Samples were then centrifuged at 4° C. or 15 min at 13,000×g. The supernatant was collected and stored at −80° C. Total protein was measured in the range of […]. Brain lysates were used for multiplex immunoassays.
Cytokine concentrations were measured in the brain lysates and plasma samples by multiplex immunoassay using a MAGPIX Multiplexing Instrument and accompanying Multiplex Analyst software (MILLIPLEX MAP Mouse Cytokine/Chemokine Magnetic Bead Panel-Immunology Multiplex Assay; MCYTOMAG-70 K; Millipore Sigma, Burlington, Massachusetts). Simultaneous measurements of granulocyte colony-stimulating factor (GCSF), granulocyte-macrophage colony-stimulating factor, interferon, interleukin (IL)-1a, IL-1B, IL-2, IL-4, IL-5, IL-6, IL-7, IL-9, IL-10, IL-12 (p40), IL-12 (p70), IL-13, IL-15, IL-17, interferon-induced protein 10, chemokine (C-X-C motif) (CXC) ligand 1 (KC), chemokine (C-C motif) ligand (CCL) 2 (monocyte chemoattractant protein-1), CCL3 [macrophage inflammatory protein (MIP) 1a], CCL4 (MIP1b), CXC ligand 2 (MIP2), CCL5 [RANTES (regulated on activation normal T cell expressed and secreted)], and tumor necrosis factor-alpha (TNF-α) were captured. All samples were run in duplicate, and the results were analyzed using ANOVA and relevant post using GraphPad Prism9. To create a composite cytokine score, we calculated the z-scores for IL-2, IL-13, and IL-17 brain cytokines. Z-scores were then added to create a composite cytokine score. The z-score was calculated for each cytokine using the following equation: […]

TNFα = experiment: Plasma cytokines, MILLIPLEX MAP Mouse High Sensitivity Multiplex Immunoassay; format: in vivo; settings: 50 μg/kg/day; values at or below assay threshold represented as 3.12
Method: Mice were assigned randomly to the following treatment groups: Control-Saline (sham MI surgery, treated with saline), HF-treated (HF-PNA5, or HF-Ang-(1-7) with either 50 μg/kg/day, or 500 μg/kg/day), or HF-saline. Mice recovered for 5 weeks following MI before receiving 24 days of daily subcutaneous drug treatment. Within the last 3 days of injections, animals underwent Novel Object Recognition (NOR) testing (FIG. 6). […]
Cytokine concentrations were measured in the brain lysates and plasma samples by multiplex immunoassay using a MAGPIX Multiplexing Instrument and accompanying Multiplex Analyst software (MILLIPLEX MAP Mouse Cytokine/Chemokine Magnetic Bead Panel-Immunology Multiplex Assay; MCYTOMAG-70 K; Millipore Sigma, Burlington, Massachusetts). […] All samples were run in duplicate, and the results were analyzed using ANOVA and relevant post using GraphPad Prism9. To create a composite cytokine score, we calculated the z-scores for IL-2, IL-13, and IL-17 brain cytokines. […] The z-score was calculated for each cytokine using the following equation: […]

Substance: DRVYIHP [Ang-(1-7), Asp-Arg-Val-Tyr-Ile-His-Pro, Mas receptor agonist]
- post-surgical increase in serum NFL [1]: significantly reduced that post-surgical increase
- HF-induced increase in serum NFL levels [2]: reversed
- brain IL-1α, mean ± SE (brain cytokines; 50 ug/kg): 95.6 ± 8.4 pg/mL
- brain IL-10 (row head as printed; title says IP-10), mean ± SE (brain cytokines; 50 ug/kg): 42.2 ± 3.2 pg/mL
- brain IL-17, mean ± SE (brain cytokines; 50 ug/kg): 44.1 ± 2.8 pg/mL
- brain IL-1α, mean ± SE (brain cytokines; 500 ug/kg): 95.6 ± 5.5 pg/mL
- brain IL-2, mean ± SE (brain cytokines; 500 ug/kg): 50.9 ± 1.9 pg/mL
- brain IL-5, mean ± SE (brain cytokines; 500 ug/kg): 53.2 ± 2.7 pg/mL
- brain IL-10 (row head as printed; title says IP-10), mean ± SE (brain cytokines; 500 ug/kg): 43.8 ± 4.2 pg/mL
- brain IL-17, mean ± SE (brain cytokines; 500 ug/kg): 42.0 ± 1.1 pg/mL
- brain lysate levels of IL-1α, IL-2, IL-5, IL-13, and IL-17 compared to HF-Saline (brain cytokines; A50 or A500 (50 or 500 ug/kg)): significantly increased
- plasma TNFα, mean (TNFα): 3.12 pg/mL
